Results published in publication PMC9718554, “Discovery of a fragment hit compound targeting D-Ala:D-Ala ligase of bacterial peptidoglycan biosynthesis” (Journal of Enzyme Inhibition and Medicinal Chemistry, 2022).
Like-named read-outs stand apart in the source and are kept apart here.

Biological target: T1, E. coli DdlB enzyme (D-alanine:D-alanine ligase) (Escherichia coli, UniProt P07862)
T1 construct: made in house; host or cells: E. coli
Assay: biochemical
Conditions: read-out: DdlB RA; for remaining activity at 3100 µM: tested concentration 3.1 mM; for remaining activity at 1900 µM: tested concentration 1.9 mM

[1] = residual activity of DdlB, fragment library screening, tested concentration 2.5 mM

Row | SMILES | remaining activity at 2500 µM [1] [%] | other results
1 | NCCCN1CCCC1=O [FF01-3614] | – | remaining activity at 4200 µM (residual activity of DdlB, fragment library screening, tested concentration 4.2 mM): 90%
2 | Cc1nn(C(C)C(=O)O)cc1Cl (centres unmarked) [FF01-4477] | – | remaining activity at 2700 µM (residual activity of DdlB, fragment library screening, tested concentration 2.7 mM): 89%
3 | Cc1nc(N)nc(C)c1CCC(=O)O [FF01-4599] | – | remaining activity at 3100 µM: 91%
4 | Cc1nn(Cc2c(C(=O)O)noc2C)c(C)c1C [FF01-5078] | – | remaining activity at 2000 µM (tested concentration 2.0 mM): 81%
5 | O=C1CSCC(C(=O)O)N1 (centres unmarked) [FF01-5725] | – | remaining activity at 3100 µM: 107%
6 | N#CCS(=O)(=O)C1CCCCC1 [FF20-0194] | – | remaining activity at 3200 µM (residual activity of DdlB, fragment library screening, tested concentration 3.2 mM): 101%
7 | COc1ccccc1Cc1noc([C@H]2CCCN2)n1 [FF20-0278] | – | remaining activity at 1900 µM: 87%
8 | Cn1cnc2c(c1=O)CCC(N)CC2 (centres unmarked) [FF20-0287] | – | remaining activity at 3100 µM: 91%
9 | Cc1nc(C(=O)O)c(C)n1C1CCN(C)CC1 [FF20-0714] | – | remaining activity at 2100 µM (residual activity, tested concentration 2.1 mM): 100%
10 | O=c1cc(N2CCOCC2)cn[nH]1 [FF20-1495] | – | remaining activity at 3000 µM (residual activity of DdlB, fragment library screening, tested concentration 3.0 mM): 88%
11 | CC(C)N1CCC(CCC(=O)O)CC1 [FF20-1518] | – | remaining activity at 2500 µM (tested concentration 2.5 mM): 108%
12 | Cc1cc(C)n(CCN2CCOCC2)n1 [FF20-3241] | – | remaining activity at 1900 µM: 86%
13 | CC(C)Oc1c(OC(C)C)c(=O)c1=O [FF20-3460] | – | remaining activity at 2500 µM (tested concentration 2.5 mM): 72%
14 | O=C(O)C1CCN(c2ccc(C(F)(F)F)cn2)CC1 [FF30-0262] | – | remaining activity at 1800 µM (fragment library screening, tested concentration 1.8 mM): 92%
15 | CC(=O)Oc1cccc(C(=O)O)c1 [FLD001] | 100 | –
16 | O=c1[nH][nH]c2ccccc12 [FLD002] | 89 | –
17 | O=C(O)Cc1ccsc1 [FLD003] | 100 | –
18 | N#Cc1nc[nH]c1C#N [FLD004] | – | remaining activity at 2500 µM: 100%
19 | O=C(O)c1n[nH]c2ccccc12 [FLD005] | 97 | –
20 | COC(=O)c1ccccc1C(=O)O [FLD006] | 89 | –
21 | NC(=O)c1cnccn1 [FLD007] | 100 | –
22 | COc1ccc2c(c1)C(=O)CCC2 [FLD008] | 100 | –
23 | Oc1cccc2[nH]ccc12 [FLD010] | 100 | –
24 | O=C(O)c1c[nH]cn1 [FLD011] | 100 | –
25 | COc1cc(C#N)ccc1C [FLD012] | 51 | –

Row | SMILES | remaining activity at 2500 µM [1] [%] | other results
26 | COc1ccc2ccc(O)cc2c1 [FLD013] | 73 | –
27 | Cc1cc(N)no1 [FLD014] | 104 | –
28 | CC(=O)c1ccc([N+](=O)[O-])cc1 [FLD015] | 100 | –
29 | NC(=O)Nc1ccccc1 [FLD016] | 99 | –
30 | NC(=O)NC(=O)Cc1ccccc1 [FLD017] | 100 | –
31 | Cc1nc(-c2ccc(C(=O)O)cc2)cs1 [FLD018] | 99 | –
32 | CC(Oc1ccccc1)C(=O)O (centres unmarked) [FLD019] | 99 | –
33 | O=C(O)c1ccc(-n2ccnc2)cc1 [FLD020] | 96 | –
34 | Cc1c[nH]c(=O)[nH]c1=O [FLD021] | 91 | –
35 | O=C1CNC(=S)N1 [FLD022] | 98 | –
36 | Cc1ccc(N)c(O)c1 [FLD023] | – | remaining activity at 2500 µM: 100%
37 | Cc1nc(-c2ccncc2)sc1C(=O)O [FLD024] | 96 | –
38 | Cc1ccc(C(=N)N)cc1 [FLD025] | 100 | –
39 | O=C(O)c1ccc(-c2cnco2)cc1 [FLD026] | 87 | –
40 | COc1cc(O)cc(OC)c1OC [FLD027] | 98 | –
41 | O=C1CCC(C(=O)O)N1 (centres unmarked) [FLD028] | 100 | –
42 | O=C1COc2cc(O)ccc21 [FLD029] | 100 | –
43 | COc1ccc(-c2ccc(C(=O)O)o2)cc1 [FLD030] | 100 | –
44 | NC(=O)c1cccnc1 [FLD031] | 100 | –
45 | Nc1cc(Cl)ccc1O [FLD032] | 100 | –
46 | Cc1ccccc1C(=O)NCC(=O)O [FLD033] | 100 | –
47 | O=C(O)c1ccc[nH]1 [FLD034] | 100 | –
48 | [C-]#[N+]CS(=O)(=O)c1ccc(C)cc1 [FLD035] | – | remaining activity at 2500 µM: 100%
49 | Cc1cc(N)on1 [FLD036] | 97 | –
50 | Cc1cc(Cl)ccc1O [FLD037] | 85 | –

Row | SMILES | remaining activity at 2500 µM [1] [%] | other results
51 | O=C(O)C1Cc2ccccc2N1 (centres unmarked) [FLD038] | 81 | –
52 | O=C(O)[C@H](O)Cc1ccccc1 [FLD039] | 93 | –
53 | c1cnc2c(c1)ccc1cccnc12 [FLD040] | 74 | –
54 | O=C1CNC(=O)N1 [FLD041] | 95 | –
55 | Nc1cc(O)[nH]n1 [FLD042] | 100 | –
56 | NC(=O)c1ccccc1N [FLD043] | 98 | –
57 | NOCc1ccccc1 [FLD044] | 94 | –
58 | Oc1ccc(OCc2ccccc2)cc1 [FLD045] | 100 | –
59 | Cc1cc(Cl)nc(N)n1 [FLD046] | 79 | –
60 | Nc1cc(F)c(F)cc1C(=O)O [FLD047] | 92 | –
61 | COc1cc(N)c(C#N)cc1OC [FLD048] | 100 | –
62 | COc1nc(Cl)nc(OC)n1 [FLD049] | 95 | –
63 | Nc1ccc(F)c(Cl)c1 [FLD050] | – | remaining activity at 2500 µM: 98%
64 | Cc1ccc(C#N)c(O)n1 [FLD051] | 97 | –
65 | Nc1ccc(Cl)nn1 [FLD052] | 96 | –
66 | Nc1cc[nH]c(=O)n1 [FLD053] | 100 | –
67 | Nc1cccc2ncccc12 [FLD054] | 94 | –
68 | O=C(O)Cc1ccncc1 [FLD055] | 96 | –
69 | O=C(O)c1ccc(CN2CCCCC2)cc1 [FLD056] | 100 | –
70 | O=C1CC[C@H](C(=O)O)O1 [FLD057] | – | remaining activity at 2500 µM: 100%
71 | O=C1CNCCN1 [FLD058] | 100 | –
72 | N=C1NC(=O)CS1 [FLD059] | 99 | –
73 | O=C(O)c1ccccc1Br [FLD060] | 100 | –
74 | Nc1cccc([N+](=O)[O-])c1 [FLD061] | 98 | –
75 | O=C(O)c1ccc(F)cc1 [FLD062] | 98 | –

Row | SMILES | remaining activity at 2500 µM [1] [%] | other results
76 | CC(=O)Nc1cccc(C)c1 [FLD063] | 100 | –
77 | CCOc1ccc(NC(C)=O)cc1 [FLD064] | 98 | –
78 | OCc1cccc(Oc2ccccc2)c1 [FLD065] | 100 | –
79 | O=C(O)C(c1ccccc1)c1ccccc1 [FLD066] | 100 | –
80 | NS(=O)(=O)c1ccc(Cl)s1 [FLD067] | 100 | –
81 | O=C(O)c1ccc2cc(O)ccc2c1 [FLD068] | 94 | –
82 | Nc1ccc(-c2ccc(N)cc2)cc1 [FLD069] | 70 | –
83 | CN(C)c1ccc(C(=O)O)cc1 [FLD070] | 93 | –
84 | O=C(O)c1cccc(Cl)c1 [FLD071] | 100 | –
85 | Cc1ccc(O)c(C(=O)O)c1 [FLD072] | 99 | –
86 | C/C=C/c1ccc(OC)cc1 [FLD073] | 100 | –
87 | Nc1ccc2ccccc2c1 [FLD074] | 89 | –
88 | Cc1ccc(N)c(N)c1 [FLD075] | 90 | –
89 | Oc1cccc(-c2ccccc2)c1 [FLD076] | 98 | –
90 | OC1CCCc2ccccc21 (centres unmarked) [FLD077] | 99 | –
91 | Nc1csc2nccnc12 [FLD078] | 100 | –
92 | S=c1[nH]ncs1 [FLD079] | 81 | –
93 | Nc1ccc(Cl)cc1 [FLD080] | 100 | –
94 | Cc1cc(=O)n(-c2ccccc2)n1C [FLD081] | 100 | –
95 | O=C(O)Cc1cccnc1 [FLD083] | 98 | –
96 | Nc1ncncn1 [FLD084] | 98 | –
97 | Nc1cccc(O)c1 [FLD085] | 100 | –
98 | Cc1cccc(N)c1C#N [FLD086] | 100 | –
99 | Cc1ccnc(N)c1 [FLD087] | 100 | –
100 | Nc1ncccc1C(=O)O [FLD088] | – | remaining activity at 2500 µM: 98%

Row | SMILES | remaining activity at 2500 µM [1] [%] | other results
101 | COc1cnc(N)nc1 [FLD089] | 100 | –
102 | Cc1cc(N)ccn1 [FLD090] | 100 | –
103 | Nc1cccc(C(F)(F)F)n1 [FLD091] | – | remaining activity at 2500 µM: 100%
104 | O=[N+]([O-])c1ccc(O)c(Cl)c1 [FLD092] | 97 | –
105 | O=C(c1ccc(O)cc1)c1ccc(O)cc1 [FLD093] | 97 | –
106 | Cc1cc(C(=O)O)n(C)n1 [FLD094] | 96 | –
107 | Clc1ccc(Cl)nn1 [FLD095] | 98 | –
108 | O=C(O)c1ccco1 [FLD096] | 95 | –
109 | O=C(O)c1cc(O)ccc1Cl [FLD097] | 94 | –
110 | CCOC(=O)Nc1ccccc1 [FLD098] | 96 | –
111 | CCOc1ccc(O)cc1 [FLD099] | 100 | –
112 | Cc1nc(C(=O)O)cs1 [FLD100] | 93 | –
113 | CC(=O)NC1CCC(=O)CC1 [FLD101] | 98 | –
114 | CNC(C)C(O)c1ccccc1 (centres unmarked) [FLD102] | 97 | –
115 | Nc1ncn[nH]1 [FLD103] | 95 | –
116 | CCc1occc(=O)c1O [FLD104] | 86 | –
117 | Oc1ccccc1 [FLD105] | – | remaining activity at 2500 µM: 95%
118 | CCOC(=O)c1[nH]cnc1C [FLD106] | 100 | –
119 | NC(=S)Nc1ccc(F)cc1 [FLD107] | 95 | –
120 | O=C(O)c1cc2ccccc2oc1=O [FLD109] | 96 | –
121 | NS(=O)(=O)c1ccccc1 [FLD110] | 110 | –
122 | Nc1cccc(N)c1 [FLD111] | 92 | –
123 | N[C@H](c1ccccc1)[C@@H](N)c1ccccc1 [FLD112] | – | remaining activity at 2500 µM: 100%
124 | N#Cc1ccccc1Br [FLD114] | 99 | –
125 | Cc1ccc(C)c(S(=O)(=O)O)c1 [FLD115] | 94 | –
